# Laboratory results taken from ChEMBL document CHEMBL1201862, “PubChem BioAssay data set” (2004).
# Active and inactive are the calls of the source.
# Key:
# [1] = NIH-3T3 fibroblast cytotoxicity, dose response, cytotoxicity control, cell-based, fluorescence, Alamar Blue, secondary assay (AID 2327); type: functional;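 note: NIH-3T3 mouse fibroblasts cultured with fluconazole at 8 µg/mL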
# [2] = biological target: T1, Intestinal-type alkaline phosphatase (Homo sapiens, UniProt P09923); experiment: inhibition of human intestinal alkaline phosphatase – biochemical, dose response (AID 488876); type: functional
# T1 sequence (P09923 whole entry): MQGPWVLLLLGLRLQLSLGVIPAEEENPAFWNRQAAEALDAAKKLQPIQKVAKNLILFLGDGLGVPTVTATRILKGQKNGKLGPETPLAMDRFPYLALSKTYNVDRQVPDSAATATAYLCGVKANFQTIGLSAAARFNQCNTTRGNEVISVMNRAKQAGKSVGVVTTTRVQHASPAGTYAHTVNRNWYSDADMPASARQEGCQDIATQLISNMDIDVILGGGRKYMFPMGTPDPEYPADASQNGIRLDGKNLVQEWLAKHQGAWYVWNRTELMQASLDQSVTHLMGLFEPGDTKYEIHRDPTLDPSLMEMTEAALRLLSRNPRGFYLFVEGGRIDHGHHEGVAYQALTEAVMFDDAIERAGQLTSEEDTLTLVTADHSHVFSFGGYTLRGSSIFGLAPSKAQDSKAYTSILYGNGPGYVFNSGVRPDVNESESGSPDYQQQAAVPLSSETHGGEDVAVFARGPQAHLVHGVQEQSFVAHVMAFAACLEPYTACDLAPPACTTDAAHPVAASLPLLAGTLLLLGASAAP
# SUMO-activating enzyme [3] = biological target: T2, SUMO-activating enzyme (Homo sapiens, UniProt Q9UBT2); experiment: inhibitors of in vitro SUMOylation cascade, primary screen, biochemical, HTRF, uHTS (AID 2006); type: protein-complex assay
# T2 sequence (Q9UBE0 whole entry): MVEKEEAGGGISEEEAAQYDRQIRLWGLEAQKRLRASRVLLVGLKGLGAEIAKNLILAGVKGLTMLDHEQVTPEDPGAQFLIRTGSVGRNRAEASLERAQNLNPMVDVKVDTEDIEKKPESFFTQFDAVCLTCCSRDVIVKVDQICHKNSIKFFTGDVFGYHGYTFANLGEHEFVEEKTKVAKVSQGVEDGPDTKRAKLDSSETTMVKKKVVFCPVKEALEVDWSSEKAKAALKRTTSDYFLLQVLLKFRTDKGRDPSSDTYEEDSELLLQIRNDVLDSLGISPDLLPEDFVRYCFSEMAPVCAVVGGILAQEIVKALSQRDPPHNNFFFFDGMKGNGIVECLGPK
# T2 sequence (Q9UBT2 whole entry): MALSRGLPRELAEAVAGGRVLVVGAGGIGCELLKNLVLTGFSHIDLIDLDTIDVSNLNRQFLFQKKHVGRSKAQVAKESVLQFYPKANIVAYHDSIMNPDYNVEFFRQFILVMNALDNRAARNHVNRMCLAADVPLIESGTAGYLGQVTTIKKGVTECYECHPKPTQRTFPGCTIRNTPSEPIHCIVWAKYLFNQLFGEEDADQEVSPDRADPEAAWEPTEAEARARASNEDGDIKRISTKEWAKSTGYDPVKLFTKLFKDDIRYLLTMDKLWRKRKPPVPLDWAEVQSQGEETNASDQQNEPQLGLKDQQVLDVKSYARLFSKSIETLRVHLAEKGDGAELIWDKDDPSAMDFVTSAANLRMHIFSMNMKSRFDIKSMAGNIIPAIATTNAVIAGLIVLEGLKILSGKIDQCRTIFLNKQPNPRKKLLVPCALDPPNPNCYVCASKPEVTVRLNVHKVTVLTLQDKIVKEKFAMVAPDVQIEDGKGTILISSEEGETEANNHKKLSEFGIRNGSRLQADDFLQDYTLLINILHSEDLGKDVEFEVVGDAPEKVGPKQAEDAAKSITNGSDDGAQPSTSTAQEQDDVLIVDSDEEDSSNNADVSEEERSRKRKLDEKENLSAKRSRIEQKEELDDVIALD
# [4] = biological target: T3, Alkaline phosphatase, tissue-nonspecific isozyme (Homo sapiens, UniProt P05186); experiment: TNAP enzyme inhibition by screening hits, dose response, selectivity assay for mouse IAP inhibitor project, biochemical, human TNAP, uHTS hits (AID 488906); type: functional
# T3 sequence (P05186 whole entry): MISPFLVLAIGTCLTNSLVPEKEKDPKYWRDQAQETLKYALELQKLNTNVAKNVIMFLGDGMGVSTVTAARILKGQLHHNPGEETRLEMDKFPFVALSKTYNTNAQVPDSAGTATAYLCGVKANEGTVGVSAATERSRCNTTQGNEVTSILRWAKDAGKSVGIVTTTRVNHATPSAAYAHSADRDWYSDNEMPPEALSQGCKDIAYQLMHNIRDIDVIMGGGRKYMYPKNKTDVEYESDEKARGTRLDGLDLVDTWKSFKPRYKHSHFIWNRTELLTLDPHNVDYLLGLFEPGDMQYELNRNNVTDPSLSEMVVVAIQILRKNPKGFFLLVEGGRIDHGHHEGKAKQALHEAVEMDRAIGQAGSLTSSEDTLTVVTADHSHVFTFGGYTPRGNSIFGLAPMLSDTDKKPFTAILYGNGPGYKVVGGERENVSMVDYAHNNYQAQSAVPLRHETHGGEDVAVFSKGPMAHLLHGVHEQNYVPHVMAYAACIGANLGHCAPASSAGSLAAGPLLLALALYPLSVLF
# SUMO-activating enzyme [5] = biological target: T2, SUMO-activating enzyme; experiment: SUMOylation inhibitor hit validation, confirmation, SUMOylation inhibitor project, biochemical, AlphaScreen (AID 2018); type: functional
# [6] = biological target: T4, Intestinal-type alkaline phosphatase (Mus musculus, UniProt P24822); experiment: PubChem AID 488785; type: functional
# T4 sequence (P24822 whole entry): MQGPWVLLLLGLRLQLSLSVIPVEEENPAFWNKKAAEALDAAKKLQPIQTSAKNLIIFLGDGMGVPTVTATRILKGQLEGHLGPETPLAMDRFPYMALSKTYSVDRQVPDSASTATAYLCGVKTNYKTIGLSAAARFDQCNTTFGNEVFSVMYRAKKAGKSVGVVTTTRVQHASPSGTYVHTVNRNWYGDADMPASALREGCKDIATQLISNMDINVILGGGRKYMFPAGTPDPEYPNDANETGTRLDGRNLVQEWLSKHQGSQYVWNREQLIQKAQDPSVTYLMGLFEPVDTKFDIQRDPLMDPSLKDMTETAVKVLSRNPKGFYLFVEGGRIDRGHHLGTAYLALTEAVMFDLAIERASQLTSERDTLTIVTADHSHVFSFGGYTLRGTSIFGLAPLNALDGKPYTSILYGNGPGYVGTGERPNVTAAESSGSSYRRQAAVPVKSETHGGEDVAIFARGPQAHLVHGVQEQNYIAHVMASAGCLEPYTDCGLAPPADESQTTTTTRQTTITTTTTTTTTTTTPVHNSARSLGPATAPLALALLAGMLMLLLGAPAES
# [7] = C. albicans growth with fluconazole, confirmation, fluorescence, retest (AID 2467); type: functional, cell-based
# [8] = biological target: Induced myeloid leukemia cell differentiation protein Mcl-1 (Homo sapiens, UniProt Q07820); type: functional
# Induced myeloid leukemia cell differentiation protein Mcl-1, sequence (Q07820 whole entry): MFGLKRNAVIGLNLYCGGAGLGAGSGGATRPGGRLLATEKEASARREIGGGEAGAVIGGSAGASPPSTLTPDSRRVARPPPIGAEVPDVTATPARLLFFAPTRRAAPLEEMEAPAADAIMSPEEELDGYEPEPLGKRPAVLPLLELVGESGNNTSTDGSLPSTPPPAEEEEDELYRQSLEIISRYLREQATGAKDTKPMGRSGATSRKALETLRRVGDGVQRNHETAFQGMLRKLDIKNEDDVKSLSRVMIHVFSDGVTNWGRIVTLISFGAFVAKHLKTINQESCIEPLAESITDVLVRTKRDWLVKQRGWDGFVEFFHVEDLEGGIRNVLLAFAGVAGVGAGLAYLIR
# Cytochrome P450 2C9 = Cytochrome P450 2C9 (Homo sapiens, UniProt P11712)
# Cytochrome P450 1A2 = biological target: T5, Cytochrome P450 1A2 (Homo sapiens, UniProt P05177);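 note: PubChem cytochrome P450 panel assay, CYP1A2 panel member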
# T5 sequence (P05177 whole entry): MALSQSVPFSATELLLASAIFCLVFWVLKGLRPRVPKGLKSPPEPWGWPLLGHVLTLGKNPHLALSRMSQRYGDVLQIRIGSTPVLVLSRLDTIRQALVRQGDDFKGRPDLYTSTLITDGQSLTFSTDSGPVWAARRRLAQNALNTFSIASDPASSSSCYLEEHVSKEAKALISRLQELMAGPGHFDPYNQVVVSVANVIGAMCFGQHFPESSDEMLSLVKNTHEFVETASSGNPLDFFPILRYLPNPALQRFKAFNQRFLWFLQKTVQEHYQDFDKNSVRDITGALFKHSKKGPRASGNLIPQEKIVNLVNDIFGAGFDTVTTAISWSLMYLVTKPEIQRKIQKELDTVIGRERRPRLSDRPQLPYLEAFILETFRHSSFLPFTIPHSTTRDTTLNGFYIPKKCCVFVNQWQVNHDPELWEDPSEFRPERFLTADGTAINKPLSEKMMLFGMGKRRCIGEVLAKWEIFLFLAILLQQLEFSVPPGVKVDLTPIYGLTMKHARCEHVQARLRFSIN
# Cytochrome P450 2C19 = Cytochrome P450 2C19 (Homo sapiens, UniProt P33261); experiment: Cytochrome panel assay with activity outcomes. Panel member name: p450-cyp2c19 Compounds with AC50 equal or less than 10 uM are considered active; type: functional
# Cytochrome P450 2C19, sequence (P33261 whole entry): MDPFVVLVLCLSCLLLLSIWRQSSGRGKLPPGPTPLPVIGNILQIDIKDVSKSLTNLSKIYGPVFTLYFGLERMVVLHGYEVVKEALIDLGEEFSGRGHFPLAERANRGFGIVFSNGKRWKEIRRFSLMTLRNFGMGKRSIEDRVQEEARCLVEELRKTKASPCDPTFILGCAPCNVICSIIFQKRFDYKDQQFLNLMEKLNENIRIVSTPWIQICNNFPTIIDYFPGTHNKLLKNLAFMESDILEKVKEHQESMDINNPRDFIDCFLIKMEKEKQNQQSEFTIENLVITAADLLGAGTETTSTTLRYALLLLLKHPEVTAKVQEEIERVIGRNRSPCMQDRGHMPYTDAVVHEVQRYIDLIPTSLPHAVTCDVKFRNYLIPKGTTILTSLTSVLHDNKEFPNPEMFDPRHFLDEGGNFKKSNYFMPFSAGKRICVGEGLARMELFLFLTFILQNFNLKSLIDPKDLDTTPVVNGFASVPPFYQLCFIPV
# [9] = biological target: T1, Intestinal-type alkaline phosphatase; experiment: Dose Response confirmation of uHTS hits from a small molecule inhibitors of human intestinal alkaline phosphatase via a luminescent assay. [Related pubchem assays (depositor defined):AID2544, AID2574]; type: functional
# [10] = biological target: T4, Intestinal-type alkaline phosphatase; experiment: PubChem AID 488875; type: functional
# [11] = biological target: T3, Alkaline phosphatase, tissue-nonspecific isozyme; experiment: TNAP enzyme activators, dose response, selectivity assay for human IAP activator project, biochemical, TNAP isozyme, human IAP uHTS hits (AID 488886); type: functional;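 note: potency of compounds raising TNAP activity as a selectivity check on IAP activators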
# [12] = biological target: T1, Intestinal-type alkaline phosphatase; experiment: human IAP inhibitors, dose response, biochemical, luminescent, uHTS hits, set 2 (AID 488793); type: functional
# HEK293 [13] = experiment: cells; details: Homo sapiens
# HEK293 [14] = experiment: cells; details: Homo sapiens; remark: listed apart in the source
# [15] = biological target: T1, Intestinal-type alkaline phosphatase; experiment: human intestinal alkaline phosphatase activators, dose response, biochemical, luminescence, uHTS hits (AID 463120); type: functional
# [16] = biological target: T1, Intestinal-type alkaline phosphatase; experiment: human IAP activators, dose response, biochemical, luminescent, uHTS hits, set 2 (AID 488817); type: functional;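 note: potency of activators that raise enzyme activity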
# [17] = biological target: T6, Short transient receptor potential channel 4 (Mus musculus, UniProt Q9QUQ5); experiment: SAR Analysis for the identification of selective inhibits of the transient receptor potential cation channel C4 (TRPC4): Automated Electrophysiology_2. [Related pubchem assays (depositor defined):AID2256]; type: functional
# T6 sequence (Q9QUQ5 whole entry): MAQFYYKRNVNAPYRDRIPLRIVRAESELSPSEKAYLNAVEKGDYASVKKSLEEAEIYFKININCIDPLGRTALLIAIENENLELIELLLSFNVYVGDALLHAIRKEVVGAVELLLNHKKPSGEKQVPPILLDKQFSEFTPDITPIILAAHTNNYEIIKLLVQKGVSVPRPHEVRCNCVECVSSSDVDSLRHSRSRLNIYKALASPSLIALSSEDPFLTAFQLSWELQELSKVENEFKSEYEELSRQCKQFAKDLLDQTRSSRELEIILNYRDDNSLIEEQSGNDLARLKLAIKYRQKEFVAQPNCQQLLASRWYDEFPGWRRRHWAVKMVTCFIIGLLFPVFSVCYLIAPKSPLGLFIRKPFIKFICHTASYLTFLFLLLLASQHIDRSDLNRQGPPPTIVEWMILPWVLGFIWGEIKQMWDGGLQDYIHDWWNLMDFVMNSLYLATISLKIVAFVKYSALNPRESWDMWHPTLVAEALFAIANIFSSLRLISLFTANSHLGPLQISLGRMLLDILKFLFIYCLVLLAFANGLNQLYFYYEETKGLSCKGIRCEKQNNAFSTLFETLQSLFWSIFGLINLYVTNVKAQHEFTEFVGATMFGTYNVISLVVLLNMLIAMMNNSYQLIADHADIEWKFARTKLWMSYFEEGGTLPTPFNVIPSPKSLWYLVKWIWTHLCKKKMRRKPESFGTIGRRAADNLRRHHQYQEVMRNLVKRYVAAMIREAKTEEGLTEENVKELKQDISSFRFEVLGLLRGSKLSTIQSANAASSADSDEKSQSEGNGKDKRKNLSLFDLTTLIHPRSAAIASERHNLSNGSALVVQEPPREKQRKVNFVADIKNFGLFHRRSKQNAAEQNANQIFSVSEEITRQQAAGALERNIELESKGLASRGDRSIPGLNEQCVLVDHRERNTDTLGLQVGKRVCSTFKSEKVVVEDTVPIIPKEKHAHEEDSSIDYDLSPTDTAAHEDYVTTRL
# [18] = biological target: C-C chemokine receptor type 6 (Homo sapiens, UniProt P51684); experiment: CCR6 receptor antagonists, dose response, cell-based, luminescent beta-arrestin readout (AID 504728); type: functional
# C-C chemokine receptor type 6, sequence (P51684 whole entry): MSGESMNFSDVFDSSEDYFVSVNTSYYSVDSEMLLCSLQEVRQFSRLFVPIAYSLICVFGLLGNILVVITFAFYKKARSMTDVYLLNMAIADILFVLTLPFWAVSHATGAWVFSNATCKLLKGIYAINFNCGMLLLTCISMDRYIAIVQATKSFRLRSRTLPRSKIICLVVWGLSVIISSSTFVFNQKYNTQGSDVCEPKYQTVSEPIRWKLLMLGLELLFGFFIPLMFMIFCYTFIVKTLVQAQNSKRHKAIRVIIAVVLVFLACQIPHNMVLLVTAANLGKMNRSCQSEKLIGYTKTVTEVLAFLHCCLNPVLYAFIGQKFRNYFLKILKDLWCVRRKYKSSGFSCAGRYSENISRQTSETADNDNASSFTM
# Beta-galactosidase = Beta-galactosidase (Escherichia coli, UniProt Q8VNN2); experiment: beta-galactosidase enzyme inhibitors and activators, dose response, artefact control for CCR6 antagonist project, biochemical, E. coli enzyme, set 3 (AID 504712); type: functional
# Beta-galactosidase, sequence (Q8VNN2 whole entry): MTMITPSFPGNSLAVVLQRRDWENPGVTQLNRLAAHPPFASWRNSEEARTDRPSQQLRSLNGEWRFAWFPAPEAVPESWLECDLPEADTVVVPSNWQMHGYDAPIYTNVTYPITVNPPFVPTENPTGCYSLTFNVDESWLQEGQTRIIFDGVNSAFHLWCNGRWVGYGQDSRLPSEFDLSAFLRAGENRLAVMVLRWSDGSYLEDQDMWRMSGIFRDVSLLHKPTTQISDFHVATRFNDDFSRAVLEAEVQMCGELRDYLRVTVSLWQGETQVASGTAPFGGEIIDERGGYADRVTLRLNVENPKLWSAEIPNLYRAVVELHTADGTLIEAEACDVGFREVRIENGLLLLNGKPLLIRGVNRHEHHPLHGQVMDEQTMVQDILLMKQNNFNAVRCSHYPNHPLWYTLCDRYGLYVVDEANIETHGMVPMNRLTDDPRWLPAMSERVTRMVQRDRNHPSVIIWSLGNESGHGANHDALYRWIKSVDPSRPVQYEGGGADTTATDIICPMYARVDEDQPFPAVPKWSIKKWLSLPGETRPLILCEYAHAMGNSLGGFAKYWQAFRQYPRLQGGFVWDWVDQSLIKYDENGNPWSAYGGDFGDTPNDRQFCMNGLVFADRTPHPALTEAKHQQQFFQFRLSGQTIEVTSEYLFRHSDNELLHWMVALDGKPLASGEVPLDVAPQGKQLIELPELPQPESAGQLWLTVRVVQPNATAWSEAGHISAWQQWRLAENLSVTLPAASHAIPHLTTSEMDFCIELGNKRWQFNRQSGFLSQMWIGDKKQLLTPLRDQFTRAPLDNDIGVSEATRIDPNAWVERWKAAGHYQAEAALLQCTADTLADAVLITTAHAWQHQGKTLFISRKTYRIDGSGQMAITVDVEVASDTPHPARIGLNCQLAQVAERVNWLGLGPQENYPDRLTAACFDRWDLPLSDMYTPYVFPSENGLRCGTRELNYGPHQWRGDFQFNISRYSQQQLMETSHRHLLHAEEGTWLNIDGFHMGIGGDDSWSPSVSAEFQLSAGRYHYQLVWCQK
# [19] = biological target: T7, E3 ubiquitin-protein ligase XIAP (Homo sapiens, UniProt P98170); experiment: Counter Screen using XIAP-Bir3 for Chemical Antagonists of Bir1/2 domains of IAP-family anti-apoptotic proteins. [Related pubchem assays (depositor defined):AID1018, AID1449, AID1514, AID1638, AID1749, AID1750, AID488957, AID488963]
# T7 sequence (P98170 whole entry): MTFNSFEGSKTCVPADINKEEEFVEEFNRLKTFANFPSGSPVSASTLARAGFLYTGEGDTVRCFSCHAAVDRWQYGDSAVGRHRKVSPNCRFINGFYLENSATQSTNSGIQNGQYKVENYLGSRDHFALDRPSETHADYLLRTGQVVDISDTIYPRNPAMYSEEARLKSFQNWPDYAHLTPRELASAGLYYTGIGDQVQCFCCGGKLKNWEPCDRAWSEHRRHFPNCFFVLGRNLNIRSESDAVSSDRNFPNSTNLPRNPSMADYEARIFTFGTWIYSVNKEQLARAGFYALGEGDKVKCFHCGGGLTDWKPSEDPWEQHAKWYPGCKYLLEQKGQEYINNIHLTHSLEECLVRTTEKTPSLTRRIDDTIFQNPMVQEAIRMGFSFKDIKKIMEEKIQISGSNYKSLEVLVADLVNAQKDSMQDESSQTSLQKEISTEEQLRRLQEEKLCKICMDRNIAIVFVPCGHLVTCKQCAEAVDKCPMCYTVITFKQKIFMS
# [20] = biological target: T7, E3 ubiquitin-protein ligase XIAP; experiment: XIAP antagonists, biochemical, IAP family, fluorescence polarization (AID 1018); type: functional
# Troponin, cardiac muscle = Troponin, cardiac muscle (Homo sapiens, UniProt P19429+P45379+P63316); experiment: Fluorescence-based biochemical high throughput dose response assay for activators of the calcium sensitivity of cardiac Regulated Thin Filaments (RTF). [Related pubchem assays (depositor defined):AID493008, AID493018, AID504382, AID504383]; type: protein-complex assay
# [21] = biological target: T8, Mannose-6-phosphate isomerase (Homo sapiens, UniProt P34949); experiment: human PMI inhibitors, high substrate, primary screen, biochemical, fluorescence intensity, high mannose 6-phosphate (AID 1220)
# T8 sequence (P34949 whole entry): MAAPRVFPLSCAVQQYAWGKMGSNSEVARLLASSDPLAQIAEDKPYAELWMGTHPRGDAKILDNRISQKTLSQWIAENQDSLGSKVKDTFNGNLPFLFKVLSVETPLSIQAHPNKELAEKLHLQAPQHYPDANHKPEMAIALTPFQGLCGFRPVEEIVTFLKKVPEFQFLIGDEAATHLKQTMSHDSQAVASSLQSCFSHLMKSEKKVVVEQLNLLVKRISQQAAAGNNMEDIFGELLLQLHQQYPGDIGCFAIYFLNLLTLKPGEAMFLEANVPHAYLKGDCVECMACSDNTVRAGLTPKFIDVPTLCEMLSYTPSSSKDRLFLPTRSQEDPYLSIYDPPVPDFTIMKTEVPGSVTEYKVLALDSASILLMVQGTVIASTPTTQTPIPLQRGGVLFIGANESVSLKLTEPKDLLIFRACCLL
# [22] = biological target: Alkaline phosphatase, placental type (Homo sapiens, UniProt P05187); experiment: PLAP enzyme inhibitors, confirmation, biochemical, luminescence (AID 1512); type: functional
# [23] = biological target: DNA dC->dU-editing enzyme APOBEC-3G (Homo sapiens, UniProt Q9HC16); experiment: Dose Response confirmation of small molecule APOBEC3G DNA Deaminase Inhibitors via a fluorescence-based single-stranded DNA deaminase assay. [Related pubchem assays (depositor defined):AID493012, AID493028]; type: functional
structure (smiles),measurement,setting,value
Cc1ccc(/C=C2\SC(=S)N(/N=C/c3cc([N+](=O)[O-])ccc3O)C2=O)o1,EC50,[1],> 150 µM (inactive)
same,IC50,[2],80 µM (active)
same,IC50,SUMO-activating enzyme [3],4.54 µM (active)
same,IC50,[4],> 100 µM (inactive)
same,IC50,SUMO-activating enzyme [5],0.35 µM (active)
same,IC50,[6],61.9 µM (active)
same,EC50,[7],27.8 µM (active)
same,IC50,[8],1.53 µM (active)
CS(=O)(=O)N1CCC2(CC1)CN(c1ccc(-c3ccccc3)cc1)C2,AC50,Cytochrome P450 2C9,inconclusive
same,AC50,Cytochrome P450 1A2,inconclusive
same,AC50,Cytochrome P450 2C19,inconclusive
Cc1[nH]n(-c2nc(-c3ccccc3)cc(=O)[nH]2)c(=O)c1CCO,IC50,[9],2.82 µM (active)
same,EC50,[10],> 100 µM (inactive)
same,EC50,[11],30.7 µM (active)
same,IC50,[12],2.36 µM (active)
O=C(Nc1ccccc1Cl)c1ccccc1CC(O)(c1ccccc1)c1ccccc1,EC50,HEK293 [13],> 59.7 µM (inactive)
same,EC50,HEK293 [14],> 59.7 µM (inactive)
CC(=O)Nc1cccc(C(=O)NNC(=O)c2nnc(O)c3ccccc23)c1,EC50,[15],6.37 µM (active)
same,EC50,[10],> 100 µM (inactive)
same,EC50,[11],11 µM (active)
same,EC50,[16],12.3 µM (active)
COc1ccccc1N1CCN(c2cc(C)c3ccccc3n2)CC1,IC50,[17],9.89 µM (active)
CC1C(c2ccccc2)N(C)C(c2ccccc2)C(C)C1(O)C#Cc1ccccc1 (configuration not stated),IC50,[18],> 66.6 µM (inactive)
same,IC50,Beta-galactosidase,> 66.6 µM (inactive)
Cc1ccc(-c2nc3ccccc3c(=O)n2CCN2CCOCC2)cc1,IC50,[19],> 100 µM (inactive)
same,IC50,[20],> 100 µM (not active)
CCc1ccc(NC(=O)N2CCN(c3ccc(F)cc3)CC2)cc1,IC50,[19],> 100 µM (inactive)
same,IC50,[20],> 100 µM (not active)
COc1cc(-c2c(-c3ccc4c(c3)OCO4)noc2C)ccc1F,EC50,"Troponin, cardiac muscle",> 71.4 µM (inactive)
NC(=O)C1CCN(C(=O)c2ccc(-c3ccccc3)cc2)CC1,EC50,"Troponin, cardiac muscle",> 71.5 µM (inactive)
O=C(O)CN1C(=O)/C(=C/c2ccc(SCc3ccccc3)o2)SC1=S,IC50,SUMO-activating enzyme [3],15.5 µM (active)
same,IC50,SUMO-activating enzyme [5],4.13 µM (active)
same,IC50,[21],> 50 µM (not active)
CC(=O)NC(=S)NNC(=O)C(c1ccccc1)c1ccccc1,IC50,[22],> 100 µM (inactive)
same,IC50,[23],35.1 µM (active)
COc1cc2nc(N3CCN(C(=O)[C@H]4COc5ccccc5O4)CC3)nc(N)c2cc1OC.CS(=O)(=O)O,AC50,Cytochrome P450 1A2,inactive
same,AC50,Cytochrome P450 2C19,inactive
